Here are results for 37 molecules from US10472347B2, “Aminopyrazine compounds with A2A antagonist properties” (Merck Sharp & Dohme Corp., priority 2014, dated 2019).

What is called Ki is a dissociation constant, usually derived from enzyme kinetics or from competition with a known ligand. A high value points to a looser hold on the target. Broadly, the EC50 is the concentration that produces a half-maximal response.

The test has as its target T1, human A2a receptor (Homo sapiens, UniProt P29274).
T1 construct: purchased Perkin-Elmer RBHA2AM400UA; host or cells: HEK293 cells (membranes)
The test is described as follows: A2a competition binding assay, Scintillation Proximity technology. To be noted: membranes from HEK293 cells expressing human A2a receptor; for Ki: Ki by Cheng-Prusoff equation. The procedure, abridged:
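Membranes from HEK293 cells expressing human A2a, adenosine deaminase-treated, incubated 1 h at room temperature with compound (3000 to 0.15 nM) and 0.5 nM tritiated pyrazolotriazolopyrimidine radioligand on WGA SPA beads in Ca/Mg-free PBS + 10 mM MgCl2. Non-specific binding with 1 μM CGS15943; Ki by Cheng-Prusoff.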
(In a scintillation proximity assay essentially only radioactivity close to the scintillant gives light.)

T1 sequence (P29274 whole entry): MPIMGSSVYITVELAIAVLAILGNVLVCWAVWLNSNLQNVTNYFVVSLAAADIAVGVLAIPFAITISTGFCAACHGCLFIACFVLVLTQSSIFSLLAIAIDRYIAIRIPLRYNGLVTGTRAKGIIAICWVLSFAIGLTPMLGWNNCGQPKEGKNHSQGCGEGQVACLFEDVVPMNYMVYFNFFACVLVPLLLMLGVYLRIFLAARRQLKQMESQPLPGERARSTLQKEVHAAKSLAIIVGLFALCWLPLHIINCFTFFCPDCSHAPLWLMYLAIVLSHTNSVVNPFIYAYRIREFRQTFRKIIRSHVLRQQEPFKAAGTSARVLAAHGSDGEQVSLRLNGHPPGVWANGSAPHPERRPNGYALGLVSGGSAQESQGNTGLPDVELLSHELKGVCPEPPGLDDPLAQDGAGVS

With `CCc1cnc(CNC(=O)c2nc(C)c(-c3ncco3)nc2N)nc1` [Ex-199, 3-amino-N-[(5-ethylpyrimidin-2-yl)methyl]-6-methyl-5-(1,3-oxazol-2-yl)pyrazine-2-carboxamide], the Ki is 9.42 nM.
Consider `Cc1nc(C(=O)NCc2nccc(C(F)(F)F)n2)c(N)nc1-c1ncco1` [Ex-108, 3-amino-6-methyl-5-(1,3-oxazol-2-yl)-N-{[4-(trifluoromethyl)pyrimidin-2-yl]methyl}pyrazine-2-carboxamide], for which the Ki is 6.58 nM.
`Cc1nc(C(=O)NCc2cccc3c2ccn3CC(F)F)c(N)nc1-c1ncco1` [Ex-217, 3-amino-N-{[1-(2,2-difluoroethyl)-1H-indol-4-yl]methyl}-6-methyl-5-(1,3-oxazol-2-yl)pyrazine-2-carboxamide] yielded an inhibition constant (Ki) of 1.4 nM.
`Cc1nc(C(=O)NCc2ccncc2)c(N)nc1-c1ncco1` [Ex-27, 3-amino-6-methyl-5-(1,3-oxazol-2-yl)-N-(pyridin-4-ylmethyl)pyrazine-2-carboxamide] displayed a Ki of 120 nM.
In turn, `Cc1nc(C(=O)NCc2c(F)cccc2F)c(N)nc1-c1cnco1` [Ex-251, 3-amino-N-(2,6-difluorobenzyl)-6-methyl-5-(1,3-oxazol-5-yl)pyrazine-2-carboxamide] came in with a Ki of 1.1 nM.
With `COc1ccccc1CNC(=O)c1nc(Cl)c(-n2nccn2)nc1N` [Ex-283, 3-amino-6-chloro-N-(2-methoxybenzyl)-5-(2H-1,2,3-triazol-2-yl)pyrazine-2-carboxamide], affinity was put at a Ki of 2.4 nM.
In turn, `Cc1cccc(CNC(=O)c2nc(C)c(-c3ncco3)nc2N)n1` [Ex-10, 3-amino-6-methyl-N-[(6-methylpyridin-2-yl)methyl]-5-(1,3-oxazol-2-yl)pyrazine-2-carboxamide] came in with a Ki of 0.573 nM. Besides, the EC50 (0.5 nM tritiated ligand) stood at 1.2 nM.
`Cc1nc(C(=O)NCc2ccc(Cl)cc2Cl)c(N)nc1-n1nccn1` [Ex-279, 3-amino-N-(2,4-dichlorobenzyl)-6-methyl-5-(2H-1,2,3-triazol-2-yl)pyrazine-2-carboxamide] registered a Ki of 59.3 nM.
`Cc1nc(C(=O)NCc2ccc3c(n2)NCCC3)c(N)nc1-c1ncco1` [Ex-98, 3-amino-6-methyl-5-(1,3-oxazol-2-yl)-N-(5,6,7,8-tetrahydro-1,8-naphthyridin-2-ylmethyl)pyrazine-2-carboxamide] gave a Ki of 2.93 nM.
`Nc1nc(-n2nccn2)c(Cl)nc1C(=O)NCCc1cnccn1` [Ex-311, 3-amino-6-chloro-N-(2-pyrazin-2-ylethyl)-5-(2H-1,2,3-triazol-2-yl)pyrazine-2-carboxamide] yielded an inhibition constant (Ki) of 1160 nM.
For the molecule `Nc1nc(-n2nccn2)c(Cl)nc1C(=O)NCc1cccc2ccncc12` [Ex-297, 3-amino-6-chloro-N-(isoquinolin-8-ylmethyl)-5-(2H-1,2,3-triazol-2-yl)pyrazine-2-carboxamide], the Ki was 1.65 nM.
As to `Cc1nc(C(=O)NCC(=O)N2CCC2)c(N)nc1-c1ncco1` [Ex-68, 3-amino-N-(2-azetidin-1-yl-2-oxoethyl)-6-methyl-5-(1,3-oxazol-2-yl)pyrazine-2-carboxamide], the Ki turned out to be 27.3 nM.
`Cc1nc(C(=O)NCc2ncc(Cl)cc2F)c(N)nc1-c1ncco1` [Ex-74, 3-amino-N-[(5-chloro-3-fluoropyridin-2-yl)methyl]-6-methyl-5-(1,3-oxazol-2-yl)pyrazine-2-carboxamide] yielded a Ki of 2.27 nM.
On to `Cc1nc(C(=O)NC2CCCNC2)c(N)nc1-c1ncco1` (centres unmarked) [Ex-117, 3-amino-6-methyl-5-(1,3-oxazol-2-yl)-N-piperidin-3-ylpyrazine-2-carboxamide], for which the inhibition constant Ki turned out to be 104 nM.
For the molecule `CCn1ncnc1CNC(=O)c1nc(C)c(-c2ncco2)nc1N` [Ex-166, 3-amino-N-[(1-ethyl-1H-1,2,4-triazol-5-yl)methyl]-6-methyl-5-(1,3-oxazol-2-yl)pyrazine-2-carboxamide], the Ki amounted to 0.599 nM.
`Cc1cn(C)nc1CNC(=O)c1nc(C)c(-c2ncco2)nc1N` [Ex-77, 3-amino-N-[(1,4-dimethyl-1H-pyrazol-3-yl)methyl]-6-methyl-5-(1,3-oxazol-2-yl)pyrazine-2-carboxamide] yielded a Ki of 0.828 nM.
`Cc1nc(C(=O)NCc2nnc3n2CCC3)c(N)nc1-c1ncco1` [Ex-160, 3-amino-N-(6,7-dihydro-5H-pyrrolo[2,1-c][1,2,4]triazol-3-ylmethyl)-6-methyl-5-(1,3-oxazol-2-yl)pyrazine-2-carboxamide] gave a Ki of 264 nM.
Molecule `Cc1cnc(F)c(CNC(=O)c2nc(C)c(-c3ncco3)nc2N)c1` [Ex-73, 3-amino-N-[(2-fluoro-5-methylpyridin-3-yl)methyl]-6-methyl-5-(1,3-oxazol-2-yl)pyrazine-2-carboxamide] showed a Ki of 4.64 nM.
In the case of `Cc1cnn(-c2nc(N)c(C(=O)NCc3nc4ccccc4o3)nc2Cl)c1` [Ex-356, 3-amino-N-(1,3-benzoxazol-2-ylmethyl)-6-chloro-5-(4-methyl-1H-pyrazol-1-yl)pyrazine-2-carboxamide], the Ki is 4.3 nM.
In the case of `Cc1nc(C(=O)NC2CCCc3cccnc32)c(N)nc1-c1ncco1` (single isomer, unassigned) [Ex-230B, 3-amino-6-methyl-5-(1,3-oxazol-2-yl)-N-(5,6,7,8-tetrahydroquinolin-8-yl)pyrazine-2-carboxamide], the Ki turned out to be 0.762 nM.
`Cc1nc(C(=O)N[C@@H]2CCc3ccccc32)c(N)nc1-c1ncco1` [Ex-140, 3-amino-N-[(1R)-2,3-dihydro-1H-inden-1-yl]-6-methyl-5-(1,3-oxazol-2-yl)pyrazine-2-carboxamide]: the affinity, expressed as Ki, was 0.225 nM.
Molecule `Cc1nc(C(=O)NC2CCNc3ccccc32)c(N)nc1-n1nccn1` (centres unmarked) [Ex-280, 3-amino-6-methyl-N-(1,2,3,4-tetrahydroquinolin-4-yl)-5-(2H-1,2,3-triazol-2-yl)pyrazine-2-carboxamide] displayed a Ki of 148 nM.
For `Cc1nc(C(=O)NC2CCCc3cnccc32)c(N)nc1-c1ncco1` (single isomer, unassigned) [Ex-84B, 3-amino-6-methyl-5-(1,3-oxazol-2-yl)-N-(5,6,7,8-tetrahydroisoquinolin-5-yl)pyrazine-2-carboxamide], the Ki was found to be 245 nM.
`Cc1cnn(-c2nc(N)c(C(=O)NCc3ncccc3C)nc2Cl)n1` [Ex-345, 3-amino-6-chloro-N-[(3-methylpyridin-2-yl)methyl]-5-(4-methyl-2H-1,2,3-triazol-2-yl)pyrazine-2-carboxamide]: the affinity, expressed as Ki, was 6 nM.
In turn, `COC[C@H]1CCC[C@H]1NC(=O)c1nc(C)c(-c2ncco2)nc1N` (stereo in doubt) [Ex-171, 3-amino-N-[(1R,2S)-2-(methoxymethyl)cyclopentyl]-6-methyl-5-(1,3-oxazol-2-yl)pyrazine-2-carboxamide] displayed an inhibition constant Ki of 1.03 nM.
Still for that read-out and setting: under `Cc1nc(C(=O)NCc2ccncc2Cl)c(N)nc1-c1ncco1` [Ex-46, 3-amino-N-[(3-chloropyridin-4-yl)methyl]-6-methyl-5-(1,3-oxazol-2-yl)pyrazine-2-carboxamide] stands 5.59 nM; under `Cc1nc(C(=O)N[C@H]2CCc3ccccc32)c(N)nc1-c1ncco1` [Ex-138, 3-amino-N-[(1S)-2,3-dihydro-1H-inden-1-yl]-6-methyl-5-(1,3-oxazol-2-yl)pyrazine-2-carboxamide], 0.588 nM.
In the case of `Nc1nc(-n2nccn2)c(Cl)nc1C(=O)NCc1ccnc2ccccc12` [Ex-301, 3-amino-6-chloro-N-(quinolin-4-ylmethyl)-5-(2H-1,2,3-triazol-2-yl)pyrazine-2-carboxamide], the Ki came out at 182 nM.
In the case of `Cc1cnn(-c2nc(N)c(C(=O)NCc3cncc4ccccc34)nc2Cl)c1` [Ex-361, 3-amino-6-chloro-N-(isoquinolin-4-ylmethyl)-5-(4-methyl-1H-pyrazol-1-yl)pyrazine-2-carboxamide], the Ki is 63.2 nM.
Turning to `Cc1cccnc1CNC(=O)c1nc(Cl)c(-n2cccn2)nc1N` [Ex-334, 3-amino-6-chloro-N-[(3-methylpyridin-2-yl)methyl]-5-(1H-pyrazol-1-yl)pyrazine-2-carboxamide], the inhibition constant Ki was found to be 13.7 nM.
On the same count and under the same terms, then `CN(Cc1cccc2cccnc12)C(=O)c1nc(Cl)c(-n2nccn2)nc1N` [Ex-290, 3-amino-6-chloro-N-methyl-N-(quinolin-8-ylmethyl)-5-(2H-1,2,3-triazol-2-yl)pyrazine-2-carboxamide], with 318 nM.
For `Cc1nc(C(=O)NCc2ccc(C3CC3)cc2)c(N)nc1-c1ncco1` [Ex-134, 3-amino-N-(4-cyclopropylbenzyl)-6-methyl-5-(1,3-oxazol-2-yl)pyrazine-2-carboxamide], the affinity corresponds to a Ki of 3.39 nM.
Turning to `Cc1nc(C(=O)NCc2ncccc2C(F)(F)F)c(N)nc1-c1cnco1` [Ex-249, 3-amino-6-methyl-5-(1,3-oxaol-5-yl)-N-{[3-(trifluoromethyl)-pyridin-2-yl]-methyl}pyrazine-2-carboxamide], the affinity, expressed as Ki, was 3.45 nM.
On to `Cc1cnn(-c2nc(N)c(C(=O)NCc3nc4ccccc4s3)nc2Cl)c1` [Ex-355, 3-amino-N-(1,3-benzothiazol-2-ylmethyl)-6-chloro-5-(4-methyl-1H-pyrazol-1-yl)pyrazine-2-carboxamide], for which the Ki amounted to 543 nM.
Still for that read-out and setting: under `Cc1nc(C(=O)NC2CCN(c3ncccn3)CC2)c(N)nc1-c1ncco1` [Ex-66, 3-amino-6-methyl-5-(1,3-oxaol-2-yl)-N-(1-pyrimidin-2-ylpiperidin-4-yl)pyrazine-2-carboxamide] stands 24.4 nM; under `Nc1nc(-n2nccn2)c(Cl)nc1C(=O)N[C@@H](CO)c1ccccc1` [Ex-312, 3-amino-6-chloro-N-[(1R)-2-hydroxy-1-phenylethyl]-5-(2H-1,2,3-triazol-2-yl)pyrazine-2-carboxamide], 607 nM; under `Cc1nc(C(=O)NCc2n[nH]c3c2CCCCC3)c(N)nc1-c1ncco1` [Ex-161, 3-amino-N-(1,4,5,6,7,8-hexahydrocyclohepta[c]pyrazol-3-ylmethyl)-6-methyl-5-(1,3-oxazol-2-yl)pyrazine-2-carboxamide], 0.293 nM.
